According to patent US20250082654A1, “AZD3355 (LESOGABERAN) FOR TREATMENT AND PREVENTION OF NONALCOHOLIC STEATOHEPATITIS (NASH), LIVER FIBROSIS, AND OTHER LIVER CONDITIONS” (Icahn School of Medicine at Mount Sinai, priority 2018, published 2025):

Assay: NASH mouse model, body weight
Type: in vivo
Conditions: male and female NASH model mice, 12-week treatment
Experimental: The experimental protocol was reviewed and approved by the Institutional Animal Care and Use Committee (IACUC) at Icahn School of Medicine at Mount Sinai, NY. Male and Female C57BL/6J mice (age: 6 weeks; weight: 20-25 g) were purchased from Jackson Laboratories (Farmington, CT). Animals were housed in a 12 hours light—12 hours dark cycle in the animal facility at Icahn School of Medicine at Mount Sinai, NY and handled following guidelines for the care and use of laboratory animals. Male and female mice were maintained in separate cages.
Carbon tetrachloride (CC14) was purchased from Sigma-Aldrich, MO. CC14 was freshly dissolved in corn oil at final concentration of 5% before injection. […]
Western diet containing 21.2% fat (42% Kcal), 41% sucrose and 1.25% cholesterol by weight was purchased from Envigo, WI (Teklad Custom diet Cat #TD.120528). […] During change of food and water we have been measured the amount of food and water intake and the data was collected.
Four separate groups of mice were given either 0.5% methylcellulose (as Vehicle) or AZD3355 at 10 mg/kg (low dose) body weight of mice or 30 mg/kg (high dose) body weight of mice by twice daily (BID (5 days/week)) and OCA at 30 mg/kg body weight of mice by daily (QD (5 days/week)) through oral route for up to next 12 weeks (week 13 to week 24). […] All animals were closely monitored the health conditions and behavior.

With `NC[C@@H](F)C[PH](=O)O` [AZD3355, [(2R)-3-amino-2-fluoropropyl] phosphinic acid] as the compound, how does the “body weight during treatment” value read?
Its value is “stable”.
